Substitutions are numbered along the chain they refer to.

What all share (type): binding
Assay [1] deals with T1, wild-type mALAS2 (murine erythroid 5-aminolevulinate synthase) (Mus musculus, UniProt P08680).
T1 sequence (P08680 79-587): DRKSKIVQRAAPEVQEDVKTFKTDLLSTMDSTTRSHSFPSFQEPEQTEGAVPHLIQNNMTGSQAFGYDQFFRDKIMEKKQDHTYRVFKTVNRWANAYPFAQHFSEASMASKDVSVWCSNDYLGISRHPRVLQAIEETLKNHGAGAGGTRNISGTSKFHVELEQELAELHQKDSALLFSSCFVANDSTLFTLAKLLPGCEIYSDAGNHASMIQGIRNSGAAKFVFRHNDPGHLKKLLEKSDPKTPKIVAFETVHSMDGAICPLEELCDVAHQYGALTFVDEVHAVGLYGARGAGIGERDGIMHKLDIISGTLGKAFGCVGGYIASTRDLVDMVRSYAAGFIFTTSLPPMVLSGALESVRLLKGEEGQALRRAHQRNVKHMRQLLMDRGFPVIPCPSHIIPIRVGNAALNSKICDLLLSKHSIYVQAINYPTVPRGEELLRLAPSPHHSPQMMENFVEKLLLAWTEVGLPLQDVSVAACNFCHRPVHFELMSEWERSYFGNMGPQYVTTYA
The assay can be described thus: intrinsic protein fluorescence quenching titration.

In assay [2] the target is T2, wild-type mALAS2 (murine erythroid 5-aminolevulinate synthase) (Mus musculus, UniProt P08680, K299V).
T2 sequence (P08680 79-587 K299V): T1 sequence (P08680 79-587) with K221V
The assay is described as follows: intrinsic protein fluorescence quenching titration.

The target of assay [3] is T1, wild-type mALAS2 (murine erythroid 5-aminolevulinate synthase). To be noted: half-maximal protection; 50 mM phosphate pH 7.5, 10% glycerol, 18 °C; no glycine.

As usually defined, the Kd is the equilibrium constant for the complex coming apart. Low values mean tighter binding, high ones weaker binding. Take `CC(C)(COP(=O)(O)OP(=O)(O)OC[C@H]1O[C@@H](n2cnc3c(N)ncnc32)[C@H](O)[C@@H]1OP(=O)(O)O)[C@@H](O)C(=O)NCCC(=O)NCCS` [CoA]: the equilibrium dissociation constant (Kd) in assay [1] turned out to be 302 ± 12 µM; in assay [2], 431 ± 17 µM.

Consider `CC(C)(COP(=O)(O)OP(=O)(O)OC[C@H]1O[C@@H](n2cnc3c(N)ncnc32)[C@H](O)[C@@H]1OP(=O)(O)O)[C@@H](O)C(=O)NCCC(=O)NCCSC(=O)CCC(=O)O` [succinyl-CoA], for which, in assay [3], the “K′” value was determined as 261 ± 75 µM. The results for the Kd in assay [1] and in assay [2] were 297 ± 7 µM and 223 ± 8 µM, respectively.
